Patent US10266549B2, “ULK1 inhibitors and methods using same” (SALK INSTITUTE FOR BIOLOGICAL STUDIES, priority 2014, dated 2019)

Target: ULK1 (Homo sapiens (Human), UniProt O75385)
Test: ULK1 inhibition assay (Table 1)
Assay type: biochemical
Details: * = tested as a mixture of regioisomers

Sequence of ULK1 (O75385 whole entry, species assumed): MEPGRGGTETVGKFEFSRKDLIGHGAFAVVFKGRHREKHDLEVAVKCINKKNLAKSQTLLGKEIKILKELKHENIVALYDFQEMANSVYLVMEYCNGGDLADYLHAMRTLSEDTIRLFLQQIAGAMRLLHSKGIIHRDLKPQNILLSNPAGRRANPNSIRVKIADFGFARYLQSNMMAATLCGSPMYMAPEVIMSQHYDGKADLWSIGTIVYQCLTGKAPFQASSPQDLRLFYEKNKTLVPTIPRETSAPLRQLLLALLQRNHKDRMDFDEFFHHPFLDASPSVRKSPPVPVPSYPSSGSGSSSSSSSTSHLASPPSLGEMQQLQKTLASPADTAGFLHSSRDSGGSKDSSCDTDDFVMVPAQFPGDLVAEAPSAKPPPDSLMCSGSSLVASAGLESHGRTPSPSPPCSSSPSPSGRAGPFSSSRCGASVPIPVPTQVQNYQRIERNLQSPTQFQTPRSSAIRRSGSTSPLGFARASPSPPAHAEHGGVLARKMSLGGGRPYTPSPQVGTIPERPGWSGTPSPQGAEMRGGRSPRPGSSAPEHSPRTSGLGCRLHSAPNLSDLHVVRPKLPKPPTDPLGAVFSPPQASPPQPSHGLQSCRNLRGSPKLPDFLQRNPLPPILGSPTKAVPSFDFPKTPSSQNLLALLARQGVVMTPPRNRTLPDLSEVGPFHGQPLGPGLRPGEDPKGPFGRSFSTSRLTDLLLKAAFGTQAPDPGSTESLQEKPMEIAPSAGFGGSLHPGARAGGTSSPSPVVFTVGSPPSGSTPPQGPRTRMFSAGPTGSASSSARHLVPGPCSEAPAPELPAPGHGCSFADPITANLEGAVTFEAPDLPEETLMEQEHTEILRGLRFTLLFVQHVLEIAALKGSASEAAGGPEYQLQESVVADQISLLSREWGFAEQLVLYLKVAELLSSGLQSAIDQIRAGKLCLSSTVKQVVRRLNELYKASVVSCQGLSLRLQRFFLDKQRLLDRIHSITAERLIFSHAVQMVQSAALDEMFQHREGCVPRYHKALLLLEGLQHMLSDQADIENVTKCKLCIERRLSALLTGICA

Q: For CNC(=O)c1ccccc1Oc1nc(Nc2ccc(OC)cc2)ncc1C(F)(F)F [105a, 2-((2-((4-methoxyphenyl)amino)-5-(trifluoromethyl)pyrimidin-4-yl)oxy)-N-methylbenzamide], which IC50 is on record?
A: > 2 µM

Q: How did the IC50 turn out when COc1ccc(Nc2ncc(C(F)(F)F)c(O)n2)cc1 [105b, 2-((4-methoxyphenyl)amino)-5-(trifluoromethyl)pyrimidin-4-ol] was run?
A: > 2 µM

Q: How did the IC50 turn out when CNC(=O)c1ccccc1Oc1nc(Nc2ccc(Cl)c(Cl)c2)ncc1C(F)(F)F [108a, 2-((2-((3,4-dichlorophenyl)amino)-5-(trifluoromethyl)pyrimidin-4-yl)oxy)-N-methylbenzamide] was run?
A: > 2 µM

Q: Which IC50 does the source give for Oc1nc(Nc2ccc(Cl)c(Cl)c2)ncc1C(F)(F)F [108b, 2-((3,4-dichlorophenyl)amino)-5-(trifluoromethyl)pyrimidin-4-ol] here?
A: > 2 µM

Q: For CNC(=O)c1ccccc1Oc1nc(Nc2cc(OC)ccc2OC)ncc1C(F)(F)F [109a, 2-((2-((2,5-dimethoxyphenyl)amino)-5-(trifluoromethyl)pyrimidin-4-yl)oxy)-N-methylbenzamide], which IC50 is on record?
A: > 2 µM

Q: For COc1ccc(OC)c(Nc2ncc(C(F)(F)F)c(O)n2)c1 [109b, 2-((2,5-dimethoxyphenyl)amino)-5-(trifluoromethyl)pyrimidin-4-ol], which IC50 is on record?
A: > 2 µM

Q: For CNC(=O)c1ccccc1Oc1nc(Nc2cccc(OC)c2OC)ncc1C(F)(F)F [115a, 2-((2-((2,3-dimethoxyphenyl)amino)-5-(trifluoromethyl)pyrimidin-4-yl)oxy)-N-methylbenzamide], which IC50 is on record?
A: > 2 µM

Q: COc1cccc(Nc2ncc(C(F)(F)F)c(O)n2)c1OC [115b, 2-((2,3-dimethoxyphenyl)amino)-5-(trifluoromethyl)pyrimidin-4-ol] was tested. Which IC50 did it give?
A: > 2 µM

Q: Which IC50 does the source give for CNC(=O)c1ccccc1Oc1nc(Nc2ccccc2SC)ncc1C(F)(F)F [116a, N-methyl-2-((2-((2-(methylthio)phenyl)amino)-5-(trifluoromethyl)pyrimidin-4-yl)oxy)benzamide] here?
A: > 2 µM

Q: For CSc1ccccc1Nc1ncc(C(F)(F)F)c(Nc2ccccc2SC)n1 [116b, N^2,N^4-bis(2-(methylthio)phenyl)-5-(trifluoromethyl)pyrimidine-2,4-diamine], which IC50 is on record?
A: > 2 µM

Q: O=C1CCc2cc(Nc3ncc(C(F)(F)F)c(Nc4ccccc4N4CCOCC4)n3)ccc2N1 [118a, 6-((4-((2-morpholinophenyl)amino)-5-(trifluoromethyl)pyrimidin-2-yl)amino)-3,4-dihydroquinolin-2(1H)-one] was tested. Which IC50 did it give?
A: < 0.2 µM

Q: With O=C1CCc2cc(Nc3nc(Nc4ccccc4N4CCOCC4)ncc3C(F)(F)F)ccc2N1 [118b, 6-((2-((2-morpholinophenyl)amino)-5-(trifluoromethyl)pyrimidin-4-yl)amino)-3,4-dihydroquinolin-2(1H)-one] as the compound, how does the IC50 read?
A: > 2 µM

Q: Oc1ncc(C(F)(F)F)c(Nc2ccccc2N2CCOCC2)n1 [118c, 4-((2-morpholinophenyl)amino)-5-(trifluoromethyl)pyrimidin-2-ol] was tested. Which IC50 did it give?
A: > 2 µM

Q: For O=C1CCc2cc(Nc3ncc(C(F)(F)F)c(Nc4ccccc4OC(F)F)n3)ccc2N1 [120a, 6-((4-((2-(difluoromethoxy)phenyl)amino)-5-(trifluoromethyl)pyrimidin-2-yl)amino)-3,4-dihydroquinolin-2(1H)-one], which IC50 is on record?
A: < 0.2 µM

Q: Which IC50 does the source give for FC(F)Oc1ccccc1Nc1ncc(C(F)(F)F)c(Nc2ccccc2OC(F)F)n1 [120b, N^2,N^4-bis(2-(difluoromethoxy)phenyl)-5-(trifluoromethyl)pyrimidine-2,4-diamine] here?
A: 0.2 to 2 µM

Q: Which IC50 does the source give for O=C1CCc2cc(Nc3ncc(C(F)(F)F)c(Nc4ccc5c(c4)CCC(=O)N5)n3)ccc2N1 [120c, 6,6′-((5-(trifluoromethyl)pyrimidine-2,4-diyl)bis(azanediyl))bis(3,4-dihydroquinolin-2(1H)-one)] here?
A: < 0.2 µM

Q: COc1cc(N2CCOCC2)ccc1Nc1nc(Nc2ccc3c(c2)CCC(=O)N3)ncc1C(F)(F)F [123a, 6-((4-((2-methoxy-4-morpholinophenyl)amino)-5-(trifluoromethyl)pyrimidin-2-yl)amino)-3,4-dihydroquinolin-2(1H)-one] was tested. Which IC50 did it give?
A: < 0.2 µM
